According to ChEMBL document CHEMBL3046216, “Synthesis, biological evaluation and QSAR study of a series of substituted quinazolines as antimicrobial agents” (2013):
Values after ≈ are worked out from the molar mass of the structure shown. Active and inactive are the calls of the source. The calls are words filed in the database; no cut-off is given here.

Key:
Format in all cases: functional
Bacillus subtilis = assay: Antimicrobial activity against Bacillus subtilis ATCC 6633 assessed as growth inhibition after 24 hr by NCCLS broth dilution method
Escherichia coli = assay: Antimicrobial activity against Escherichia coli ATCC 25922 assessed as growth inhibition after 24 hr by NCCLS broth dilution method
Pseudomonas aeruginosa = assay: Antimicrobial activity against Pseudomonas aeruginosa ATCC 27853 assessed as growth inhibition after 24 hr by NCCLS broth dilution method
Staphylococcus aureus = assay: Antimicrobial activity against Staphylococcus aureus ATCC 25923 assessed as growth inhibition after 24 hr by NCCLS broth dilution method

Row | SMILES | MIC (Bacillus subtilis) | MIC (Bacillus subtilis; ATCC 6633, 24 h) | MIC (Escherichia coli) | MIC (Escherichia coli; ATCC 25922, 24 h) | MIC (Pseudomonas aeruginosa) | MIC (Pseudomonas aeruginosa; ATCC 27853, 24 h) | MIC (Staphylococcus aureus) | MIC (Staphylococcus aureus; ATCC 25923, 24 h)
1 | S=C(Nc1cccc(Cl)c1)Nc1ccc2ncnc(Sc3nnc(-c4cccnc4)o3)c2c1 | inactive | 25 mg/L (≈ 50.8 µM) | inactive | 50 mg/L (≈ 102 µM) | inactive | 75 mg/L (≈ 152 µM) | inactive | 6.25 mg/L (≈ 12.7 µM)
2 | CN1CCN(c2cc3ncnc(Sc4nnc(-c5cccnc5)o4)c3cc2NC(=O)NCCc2ccccc2)CC1 | inactive | 25 mg/L (≈ 44 µM) | inactive | 12.5 mg/L (≈ 22 µM) | inactive | 50 mg/L (≈ 88.1 µM) | inactive | 6.25 mg/L (≈ 11 µM)
3 | O=C(NCCc1ccccc1)Nc1ccc2ncnc(Sc3nnc(-c4cccnc4)o3)c2c1 | inactive | 50 mg/L (≈ 106 µM) | inactive | 50 mg/L (≈ 106 µM) | inactive | 75 mg/L (≈ 160 µM) | inactive | 12.5 mg/L (≈ 26.6 µM)
4 | CN1CCN(c2cc3ncnc(Sc4nnc(-c5cccnc5)o4)c3cc2NC(=S)NC2CCCCC2)CC1 | inactive | 75 mg/L (≈ 134 µM) | inactive | 25 mg/L (≈ 44.5 µM) | inactive | 50 mg/L (≈ 89 µM) | inactive | 100 mg/L (≈ 178 µM)
5 | O=C(Nc1ccc2ncnc(Sc3nnc(-c4cccnc4)o3)c2c1)NC1CCCCC1 | inactive | 50 mg/L (≈ 112 µM) | inactive | 50 mg/L (≈ 112 µM) | inactive | 100 mg/L (≈ 223 µM) | inactive | 25 mg/L (≈ 55.9 µM)
6 | O=C(Nc1ccc(-c2ccccc2)cc1)Nc1ccc2ncnc(Sc3nnc(-c4cccnc4)o3)c2c1 | inactive | 12.5 mg/L (≈ 24.2 µM) | inactive | 100 mg/L (≈ 193 µM) | inactive | 75 mg/L (≈ 145 µM) | inactive | 12.5 mg/L (≈ 24.2 µM)
7 | Cc1ccccc1NC(=O)Nc1cc2c(Sc3nnc(-c4cccnc4)o3)ncnc2cc1N1CCN(C)CC1 | inactive | 100 mg/L (≈ 181 µM) | inactive | 50 mg/L (≈ 90.3 µM) | inactive | 100 mg/L (≈ 181 µM) | inactive | 12.5 mg/L (≈ 22.6 µM)
8 | Cc1ccc(NC(=O)Nc2ccc3ncnc(Sc4nnc(-c5cccnc5)o4)c3c2)cc1 | inactive | 75 mg/L (≈ 165 µM) | inactive | 50 mg/L (≈ 110 µM) | inactive | 12.5 mg/L (≈ 27.4 µM) | inactive | 12.5 mg/L (≈ 27.4 µM)
9 | CN1CCN(c2cc3ncnc(Sc4nnc(-c5cccnc5)o4)c3cc2NC(=S)Nc2ccccc2)CC1 | inactive | 25 mg/L (≈ 45 µM) | inactive | 25 mg/L (≈ 45 µM) | inactive | 50 mg/L (≈ 90 µM) | inactive | 50 mg/L (≈ 90 µM)

Continued by falling MIC (Bacillus subtilis; ATCC 6633, 24 h), values first:

Row | MIC (Bacillus subtilis) | MIC (Bacillus subtilis; ATCC 6633, 24 h) | MIC (Escherichia coli) | MIC (Escherichia coli; ATCC 25922, 24 h) | MIC (Pseudomonas aeruginosa) | MIC (Pseudomonas aeruginosa; ATCC 27853, 24 h) | MIC (Staphylococcus aureus) | MIC (Staphylococcus aureus; ATCC 25923, 24 h) | SMILES
10 | inactive | 12.5 mg/L (≈ 22.6 µM) | inactive | 50 mg/L (≈ 90.3 µM) | inactive | 50 mg/L (≈ 90.3 µM) | inactive | 25 mg/L (≈ 45.2 µM) | Cc1ccc(NC(=O)Nc2cc3c(Sc4nnc(-c5cccnc5)o4)ncnc3cc2N2CCN(C)CC2)cc1
11 | inactive | 12.5 mg/L (≈ 21.8 µM) | inactive | 50 mg/L (≈ 87.1 µM) | inactive | 25 mg/L (≈ 43.5 µM) | inactive | 6.25 mg/L (≈ 10.9 µM) | CN1CCN(c2cc3ncnc(Sc4nnc(-c5cccnc5)o4)c3cc2NC(=O)Nc2cccc(Cl)c2)CC1
12 | inactive | 12.5 mg/L (≈ 25.4 µM) | inactive | 25 mg/L (≈ 50.8 µM) | inactive | 100 mg/L (≈ 203 µM) | inactive | 25 mg/L (≈ 50.8 µM) | S=C(Nc1ccc(Cl)cc1)Nc1ccc2ncnc(Sc3nnc(-c4cccnc4)o3)c2c1
13 | inactive | 12.5 mg/L (≈ 26.3 µM) | inactive | 75 mg/L (≈ 158 µM) | inactive | 25 mg/L (≈ 52.5 µM) | inactive | 6.25 mg/L (≈ 13.1 µM) | O=C(Nc1ccc(Cl)cc1)Nc1ccc2ncnc(Sc3nnc(-c4cccnc4)o3)c2c1
14 | inactive | 6.25 mg/L (≈ 13.1 µM) | inactive | 12.5 mg/L (≈ 26.3 µM) | inactive | 50 mg/L (≈ 105 µM) | inactive | 6.25 mg/L (≈ 13.1 µM) | Fc1ccc(NC(=S)Nc2ccc3ncnc(Sc4nnc(-c5cccnc5)o4)c3c2)cc1
15 | inactive | 1.56 mg/L (≈ 4.67 µM) | inactive | 6.25 mg/L (≈ 18.7 µM) | inactive | 12.5 mg/L (≈ 37.4 µM) | inactive | 1.56 mg/L (≈ 4.67 µM) | CC1(C)S[C@@H]2[C@H](NC(=O)Cc3ccccc3)C(=O)N2[C@H]1C(=O)O [PENICILLIN G]
16 | inactive | 0.25 mg/L | inactive | 10 mg/L | inactive | – | inactive | 0.05 mg/L | CC1(C)S[C@@H]2[C@H](NC(=O)[C@H](N)c3ccccc3)C(=O)N2[C@H]1C(=O)O.O.O.O [AMPICILLIN TRIHYDRATE]
